Measurements from patent publication US20140371188A1, “COMPOSITIONS AND METHODS FOR INHIBITING MUSCLE ATROPHY AND INDUCING MUSCLE HYPERTROPHY” (UNIVERSITY OF IOWA RESEARCH FOUNDATION, priority 2011, published 2014).

Key:
Gadd45a mRNA = assay: Ursolic acid i.p., Gadd45a mRNA by qPCR in immobilized TA muscle; type: in vivo, C57BL/6 mice; settings: ursolic acid 200 mg/kg i.p. twice a day from day 0; TA immobilized day 2; harvest day 5; vs vehicle (corn oil)
Experimental: (§1) (A-E) Beginning on day 0, 6-8 wk old male C57BL/6 mice were given i.p. injections of ursolic acid (200 mg/kg) or an equal volume of vehicle (corn oil) twice a day. On day 2, the left tibialis anterior (TA) muscle of each mouse was immobilized. During immobilization, vehicle or ursolic acid continued to be administered via i.p. injection twice daily, and the right TA remained mobile and served as an intrasubject control. (A) On day 5, mice were euthanized and bilateral TA muscles were harvested. mRNA levels were determined with qPCR. In each mouse, mRNA levels from the immobile TA were normalized to values from the mobile TA, which were set at one. Data are means±SEM from ≧6 mice per condition. * P<0.05. (B-E) On day 8, bilateral TA muscles were harvested and weighed. (B) Effect of ursolic acid on skeletal muscle weight. In each mouse, the left (immobile) TA weight was normalized to the right (mobile) TA weight. Data are means±SEM from 10 mice per condition; ***P<0.001 by unpaired t-test. (C-E) Effect of ursolic acid on skeletal muscle fiber diameter. […]
(§2) Exon Arrays and Quantitative Real-Time RT-PCR (qPCR) in Muscle and Myotubes—Extraction of skeletal muscle RNA and RNA hybridizations to Mouse Exon 1.0 ST arrays (Affymetrix) were performed as described previously (Ebert, S. M., et al. (2010) Mol. Endocrinol. 24, 790-799). […]

[1] = general statement, no test described; cited from earlier work
[2] = target: T1, growth hormone receptor (GHR) (Mus musculus, UniProt P16882); assay: GHR phosphorylation in serum-starved C2C12 myoblasts (anti-GHR immunoprecipitation, phospho-tyrosine immunoblot); type: cell-based; settings: ursolic acid 10 μM, 2 minutes; C2C12 myoblasts serum-starved 6 hours; absence or presence of recombinant human growth hormone 100 ng/ml
T1 construct: endogenous in cells; host or cells: C2C12 mouse myoblasts (ATCC CRL-1772), serum-starved for 6 hours
T1 sequence (P16882 25-650): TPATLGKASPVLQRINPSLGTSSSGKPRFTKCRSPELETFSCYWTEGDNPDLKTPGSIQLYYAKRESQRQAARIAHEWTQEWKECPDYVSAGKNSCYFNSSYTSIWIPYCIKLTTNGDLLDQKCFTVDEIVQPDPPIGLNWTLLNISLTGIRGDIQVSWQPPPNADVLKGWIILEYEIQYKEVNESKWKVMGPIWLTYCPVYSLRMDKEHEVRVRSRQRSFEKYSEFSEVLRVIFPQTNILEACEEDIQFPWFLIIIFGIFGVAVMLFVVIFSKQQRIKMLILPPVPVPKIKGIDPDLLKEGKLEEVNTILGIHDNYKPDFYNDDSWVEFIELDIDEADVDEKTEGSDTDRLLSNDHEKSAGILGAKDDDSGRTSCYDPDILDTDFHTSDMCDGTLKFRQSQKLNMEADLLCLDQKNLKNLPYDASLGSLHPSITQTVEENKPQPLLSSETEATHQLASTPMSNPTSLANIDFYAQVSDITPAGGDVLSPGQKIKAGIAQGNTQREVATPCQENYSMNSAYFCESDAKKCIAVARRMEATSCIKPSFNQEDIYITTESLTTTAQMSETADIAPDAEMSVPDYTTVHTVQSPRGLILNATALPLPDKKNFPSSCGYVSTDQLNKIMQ
Experimental: (§3) (A) C57BL/6 mice were fed diets lacking or containing 0.14% ursolic acid for 6 weeks before quadriceps muscles were harvested for qPCR analysis of the indicated mRNAs. mRNA levels in ursolic acid-treated mice were normalized to mRNA levels in control mice, which were set at one. Data are means±SEM from 10 mice per condition; *P<0.05, **P<0.01. (B) Cultured C2C12 myoblasts were serum-starved for 6 hours, and then incubated for 2 minutes in the absence or presence of ursolic acid (10 μM) and/or recombinant human growth hormone (100 ng/ml), as indicated. Total cellular protein extracts were subjected to immunoprecipitation with anti-GHR antibody, followed by immunoblot analysis with anti-phospho-tyrosine or anti-GHR antibodies to assess phospho-GHR and total GHR, respectively.
C2C12 Myotube Culture and Infection—Mouse C2C12 myoblasts were obtained from ATCC (CRL-1772), and maintained at 37° C. and 5% CO2 in Dulbecco's modified Eagle's medium (DMEM) (ATCC #30-2002) containing antibiotics (100 units/ml penicillin, 100 μg/ml streptomycin sulfate) and 10% (v/v) fetal bovine serum (FBS). Myoblasts were set up for experiments on day 0 in 6-well plates at a density of 2.5×10^5 cells/well. On day 2, differentiation was induced by replacing 10% FBS with 2% horse serum. On day 7, cells were rinsed once with PBS, and then 1 ml DMEM containing adenovirus was added to each well. […]

[3] = test system: quadriceps muscle mRNAs (IGF-I, Ar, Ppargc1a, Tfam, Nos1, Vegfa, Hk2); assay: Diet containing 0.14% ursolic acid, qPCR of quadriceps muscle mRNAs; type: in vivo, C57BL/6 mice; settings: diet containing 0.14% ursolic acid for 6 weeks, vs control diet
Experimental: as §3
Exon Arrays and Quantitative Real-Time RT-PCR (qPCR) in Muscle and Myotubes—Extraction of skeletal muscle RNA and RNA hybridizations to Mouse Exon 1.0 ST arrays (Affymetrix) were performed as described previously (Ebert, S. M., et al. (2010) Mol. Endocrinol. 24, 790-799). Exon expression arrays examining the effects of Gadd45a overexpression, fasting and muscle denervation in TA muscles of C57BL/6 mice were described previously (Banduseela, V. C., et al. (2009) Physiol. Genomics 39, 141-159; Welle, S., et al. (2004) Exp. Gerontol. 39, 369-377) and can be found in the NCBI Gene Expression Omnibus under GEO Series accession numbers GSE39196, GSE20103 and GSE39195, respectively. Myotube RNA was extracted using TRIzol solution (Invitrogen), and then purified using the RNeasy kit and RNase Free DNase Set (Qiagen). qPCR analyses of mRNAs encoding mouse ATF4, Gadd45a, Bax, caspase-3 (Casp3), androgen receptor (Ar), thyroid hormone receptor-α (Thra), growth hormone receptor (Ghr), hexokinase 2 (Hk2), Suclg1, Coxl1, Tfam, Nos1, MuRF1 (Trim63), atrogin-1 (Fbxo32), cathepsin L (Ctsl), Bnip3, Cdkn1a, PGC-1α (Ppargc1a), GLUT4 (S1c2a4), LC3a (Mapl1c3a) and Vegfa were performed using TaqMan Gene Expression Assays (Applied Biosystems). For qPCR studies, first strand cDNA was synthesized in a 20 μl reaction that contained 2 μg of RNA, random hexamer primers and components of the High Capacity cDNA reverse transcription kit (Applied Biosystems). qPCR was carried out using a 7500 Fast Real-Time PCR System (Applied Biosystems). All qPCR reactions were performed in triplicate and the cycle threshold (Ct) values were averaged to give the final results. To analyze the data, the ΔCt method was used, with level of 36B4 mRNA serving as the invariant control.
To test this, C57BL/6 mice were fed diets lacking or containing 0.14% ursolic acid for 6 weeks before quadriceps muscles were harvested for qPCR analysis. […] These effects of ursolic acid are consistent with ursolic acid's capacity to decrease Gadd45a and Cdkn1a expression.

[4] = test system: tibialis anterior (TA) muscle; assay: Ursolic acid i.p., recovery from immobilization-induced skeletal muscle atrophy after remobilization; type: in vivo, mouse; settings: TA immobilized 7 days, then remobilized; 200 mg/kg i.p. twice daily started at remobilization; vs vehicle
Cdkn1a mRNA = assay: Ursolic acid i.p., Cdkn1a mRNA by qPCR in immobilized TA muscle; type: in vivo, C57BL/6 mice; settings: ursolic acid 200 mg/kg i.p. twice a day from day 0; TA immobilized day 2; harvest day 5; vs vehicle (corn oil)
Experimental: as §1, §2

[5] = test system: immobilized tibialis anterior (TA) muscle; assay: Ursolic acid i.p., immobilization-induced skeletal muscle atrophy (TA weight, fiber diameter); type: in vivo, C57BL/6 mice; settings: 200 mg/kg i.p. twice a day from day 0; TA immobilized day 2; harvest day 8; vs vehicle (corn oil)
Experimental: as §1, with “diameter. (C) Data are mean fiber diameters ±SEM from 10 immobilized TA muscles per condition; ***P<0.0001 by unpaired t-test. (D) Representative cross-sections of muscle fibers immunostained with anti-laminin antibody. (E) Data are fiber size distributions of >3000 fibers from 10 immobilized TA muscles per condition.” for “diameter.”

3-β-hydroxy-urs-12-en-28-oic acid [ursolic acid]
Gadd45a mRNA, immobile TA normalized to mobile TA (Gadd45a mRNA): prevented induction | water solubility [1]: highly water-insoluble | GHR phosphorylation (phospho-GHR vs total GHR) [2]: increased GHR phosphorylation | Hk2 mRNA in quadriceps [3]: increased | IGF-I mRNA in quadriceps [3]: increased | Nos1 mRNA in quadriceps [3]: increased | PGC-1α (Ppargc1a) mRNA in quadriceps [3]: increased | Tfam mRNA in quadriceps [3]: increased | Vegfa mRNA in quadriceps [3]: increased | androgen receptor (Ar) mRNA in quadriceps [3]: increased | recovery of skeletal muscle mass after remobilization [4]: significantly enhanced the recovery of skeletal muscle mass | Cdkn1a mRNA, immobile TA normalized to mobile TA (Cdkn1a mRNA): prevented induction | TA muscle weight, left (immobile) normalized to right (mobile) [5]: reduced the loss of muscle mass | size (diameter) of skeletal muscle fibers in immobilized TA muscles [5]: increased the size of skeletal muscle fibers
